Data reported in ChEMBL document CHEMBL5576100, “Genome-Driven Discovery of Antiviral Atralabdans A-C from the Soil-Dwelling Streptomyces atratus” (J Nat Prod, 2024).
Activity calls are given as the source filed them. The calls are words filed in the database; no cut-off is given here.

Columns and labels:
Coxsackievirus B3 [1] = test: Antiviral activity against Coxsackievirus B3 infected in human Hep-2 cells assessed as log reduction in viral progeny yield measured after 48 hrs relative to control; assay type: functional
Staphylococcus aureus [2] = test: Antimicrobial activity against Staphylococcus aureus assessed as zone of inhibition at 80 ug measured after 1 to 2 days by paper disk diffusion method; assay type: functional; settings: time 1-2 day, read-out: IZ
Staphylococcus aureus [3] = test: Potentiation of imipenem-induced antimicrobial activity against Staphylococcus aureus at 10 ug measured after 18 to 24 hrs in presence of 0.5 ug/ml imipenem by paper disk diffusion method; assay type: functional, organism-based; settings: dose 10.0 µg, time 18-24 hrs
Escherichia coli = test: Antimicrobial activity against Escherichia coli DH10B assessed as zone of inhibition at 80 ug measured after 1 to 2 days by paper disk diffusion method; assay type: functional, organism-based; settings: dose 80.0 µg, time 1-2 day
Coxsackievirus B3 [4] = test: Antiviral activity against Coxsackievirus B3 infected in human Hep-2 cells assessed as inhibition of virus-induced cytopathic effect measured after 48 hrs by MTT assay relative to control; assay type: functional
[5] = Cytotoxicity against Coxsackievirus B3 infected human Hep-2 cells assessed as reduction in cell viability measured after 48 hrs by MTT assay; assay type: toxicity, cell-based; settings: Coxsackievirus B3 infected Hep-2 cells
Micrococcus luteus = test: Antimicrobial activity against Micrococcus luteus assessed as zone of inhibition at 80 ug measured after 1 to 2 days by paper disk diffusion method; assay type: functional, organism-based; settings: dose 80.0 µg, time 1-2 day
Pseudomonas sp. = test: Antimicrobial activity against Pseudomonas sp. assessed as zone of inhibition at 80 ug measured after 1 to 2 days by paper disk diffusion method; assay type: functional, organism-based; settings: dose 80.0 µg, time 1-2 day
Saccharomyces cerevisiae = test: Antimicrobial activity against Saccharomyces cerevisiae assessed as zone of inhibition at 80 ug measured after 1 to 2 days by paper disk diffusion method; assay type: functional, organism-based; settings: dose 80.0 µg, time 1-2 day
Serratia entomophila = test: Antimicrobial activity against Serratia entomophila DSM 12358 assessed as zone of inhibition at 80 ug measured after 1 to 2 days by paper disk diffusion method; assay type: functional, organism-based; settings: dose 80.0 µg, time 1-2 day
Coxsackievirus B3 [6] = test: Antiviral activity against Coxsackievirus B3 infected in human Hep-2 cells assessed as protection against virus-induced pathological changes measured after 48 hrs by microscopic analysis; assay type: functional, organism-based
Coxsackievirus B3 [7] = test: Antiviral activity against Coxsackievirus B3 infected in human Hep-2 cells assessed as inhibition of virus-induced cytopathic effect measured after 48 hrs by MTT assay; assay type: functional, organism-based; settings: Enterovirus B, HEp-2, 48 h
Coxsackievirus B3 [8] = test: Antiviral activity against Coxsackievirus B3 infected in human Hep-2 cells assessed as protection against virus-induced apoptosis measured after 48 hrs by microscopic analysis; assay type: functional, organism-based
[9] = Selectivity index, ratio of CC50 for human Hep-2 cells to EC50 for antiviral activity against Coxsackievirus B3 infected in human Hep-2 cells; assay type: toxicity, cell-based; settings: read-out: Ratio CC50/EC50
Staphylococcus aureus [10] = test: Antimicrobial activity against Staphylococcus aureus assessed as diameter of zone of inhibition at 0.5 ug/ml measured after 18 to 24 hrs by paper disk diffusion method; assay type: functional; settings: time 18-24 hrs, read-out: DIZ
Staphylococcus aureus [11] = test: Antimicrobial activity against Staphylococcus aureus assessed as diameter of zone of inhibition at 0.25 ug/ml measured after 18 to 24 hrs by paper disk diffusion method; assay type: functional, organism-based; settings: dose 0.25 µg/ml, time 18-24 hrs

SMILES: C=C[C@@](C)(O)[C@H]1C[C@H]2C(=C)[C@@H]3C[C@H]4C(C)(C)CCC[C@]24[C@H]1O3
- log(activity) (Coxsackievirus B3 [1]): ~4.5
- zone of inhibition at 80 µg/disc (Staphylococcus aureus [2]): ~1 mm
- Activity (Staphylococcus aureus [3]): inactive
- inhibition zone (IZ) (Escherichia coli): inactive
- Imax (Coxsackievirus B3 [4]): 91.2%
- CC50 at 48 h [5]: 168 µM
- inhibition zone (IZ) (Micrococcus luteus): inactive
- inhibition zone (IZ) (Pseudomonas sp.): inactive
- inhibition zone (IZ) (Saccharomyces cerevisiae): inactive
- inhibition zone (IZ) (Serratia entomophila): inactive
- Activity (Coxsackievirus B3 [6]): Active
- EC50 (Coxsackievirus B3 [7]): 27.2 µM
- Activity (Coxsackievirus B3 [8]): Active
- selectivity ratio [9]: 6.2

SMILES: C=C[C@](C)(O)[C@H]1C[C@H]2C(=C)[C@@H]3C[C@H]4C(C)(C)CCC[C@]24[C@H]1O3
- zone of inhibition at 80 µg/disc (Staphylococcus aureus [2]): ~1 mm
- Activity (Staphylococcus aureus [3]): inactive
- inhibition zone (IZ) (Escherichia coli): inactive
- Imax (Coxsackievirus B3 [4]): 85.3%
- CC50 at 48 h [5]: 161 µM
- inhibition zone (IZ) (Micrococcus luteus): inactive
- inhibition zone (IZ) (Pseudomonas sp.): inactive
- inhibition zone (IZ) (Saccharomyces cerevisiae): inactive
- inhibition zone (IZ) (Serratia entomophila): inactive
- Activity (Coxsackievirus B3 [6]): Active
- EC50 (Coxsackievirus B3 [7]): 42.7 µM
- Activity (Coxsackievirus B3 [8]): Active
- selectivity ratio [9]: 3.8

SMILES: C[C@@H](O)[C@H]1C(=O)N2C(C(=O)O)=C(SCCNC=N)C[C@H]12 [IMIPENEM ANHYDROUS]
- zone of inhibition at 0.5 µg/mL (Staphylococcus aureus [10]): ~2 mm
- diameter of the inhibition zone (DIZ) (Staphylococcus aureus [11]): inactive

SMILES: NC(=O)c1ncn([C@@H]2O[C@H](CO)[C@@H](O)[C@H]2O)n1 [RIBAVIRIN]
- CC50 at 48 h [5]: 386 µM
- EC50 (Coxsackievirus B3 [7]): 114 µM
- selectivity ratio [9]: 3.4

SMILES: C=C[C@@](C)(O)[C@@H]1C[C@H]2C(=C)[C@@H]3C[C@H]4C(C)(C)CCC[C@]24[C@H]1O3
- zone of inhibition at 80 µg/disc (Staphylococcus aureus [2]): ~1 mm
- Activity (Staphylococcus aureus [3]): inactive
- inhibition zone (IZ) (Escherichia coli): inactive
- Imax (Coxsackievirus B3 [4]): 90.1%
- CC50 at 48 h [5]: 160 µM
- inhibition zone (IZ) (Micrococcus luteus): inactive
- inhibition zone (IZ) (Pseudomonas sp.): inactive
- inhibition zone (IZ) (Saccharomyces cerevisiae): inactive
- inhibition zone (IZ) (Serratia entomophila): inactive
- Activity (Coxsackievirus B3 [6]): Active
- EC50 (Coxsackievirus B3 [7]): 76.8 µM
- Activity (Coxsackievirus B3 [8]): Active
- selectivity ratio [9]: 2
